Measured values from PMC7918733, “Biological Profiling of Semisynthetic C19-Functionalized Ferruginol and Sugiol Analogues” (Antibiotics, 2021).

Legend:
P. falciparum K1 strain = test: Antiplasmodial DNA stain-based growth assay; assay type: cell-based; conditions: Plasmodium falciparum, K1; chloroquine-resistant strain; 72 h incubation; read-out: P. falciparum K1 EC50
Protocol: (§1) Assays were performed by using previously described DNA stain-based assay and methods, including cytotoxicity assays.

P. falciparum 3D7 strain = test: Antiplasmodial DNA stain-based growth assay; assay type: cell-based; conditions: Plasmodium falciparum, 3D7; chloroquine-sensitive strain; 72 h incubation; read-out: P. falciparum 3D7 EC50
Protocol: as §1

L. infantum amastigotes = test: Intracellular amastigote assay (fluorometric test); assay type: cell-based; conditions: Leishmania infantum, read-out: L. infantum IC50 ± SD
[1] = tested on: L. amazonensis promastigotes; test: Antileishmanial in vitro promastigote assay; conditions: Leishmania amazonensis, read-out: L. amazonensis IC50 ± SD
Protocol: (§3) The compounds were additionally studied in a panel of mammalian cell lines to determine cytotoxicity.
(§4) The parasites, culture procedure and the activity of functionalized abietane analogs on Leishmania promastigotes were performed according to the method previously reported by us [28], while the intracellular amastigote assay was performed on L. amazonensis and L. infantum according to the fluorometric test [29]. The J774 cell culture and the cytotoxicity assay was carried out according to our previously described method [30].

[2] = tested on: L. infantum promastigotes; test: Antileishmanial in vitro promastigote assay; conditions: Leishmania infantum, read-out: L. infantum IC50 ± SD
Protocol: as §3, §4

[3] = target: GABAA receptor subtype (α1β2γ2S) (Homo sapiens, UniProt P14867+P18507+P47870); test: Two-microelectrode voltage-clamp in Xenopus laevis oocytes; conditions: for activation at 10 µM: read-out: IGABA Potentiation of 10 µM (%); for activation at 100 µM: read-out: IGABA Potentiation of 100 µM (%)
Chain of GABAA receptor subtype (α1β2γ2S) (P14867 28-456): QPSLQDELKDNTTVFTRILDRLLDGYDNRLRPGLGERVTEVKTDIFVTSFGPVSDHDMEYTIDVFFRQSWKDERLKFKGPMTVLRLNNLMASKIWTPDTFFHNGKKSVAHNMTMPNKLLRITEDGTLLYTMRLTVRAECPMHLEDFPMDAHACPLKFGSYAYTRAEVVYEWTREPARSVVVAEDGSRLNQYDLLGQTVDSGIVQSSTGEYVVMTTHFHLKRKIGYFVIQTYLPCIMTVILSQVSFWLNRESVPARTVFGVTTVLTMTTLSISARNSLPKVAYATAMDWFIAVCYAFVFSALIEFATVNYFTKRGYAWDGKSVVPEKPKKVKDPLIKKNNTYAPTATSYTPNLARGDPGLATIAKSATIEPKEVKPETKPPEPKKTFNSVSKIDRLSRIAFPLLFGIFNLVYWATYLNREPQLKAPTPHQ
Chain of GABAA receptor subtype (α1β2γ2S) (P47870 26-512): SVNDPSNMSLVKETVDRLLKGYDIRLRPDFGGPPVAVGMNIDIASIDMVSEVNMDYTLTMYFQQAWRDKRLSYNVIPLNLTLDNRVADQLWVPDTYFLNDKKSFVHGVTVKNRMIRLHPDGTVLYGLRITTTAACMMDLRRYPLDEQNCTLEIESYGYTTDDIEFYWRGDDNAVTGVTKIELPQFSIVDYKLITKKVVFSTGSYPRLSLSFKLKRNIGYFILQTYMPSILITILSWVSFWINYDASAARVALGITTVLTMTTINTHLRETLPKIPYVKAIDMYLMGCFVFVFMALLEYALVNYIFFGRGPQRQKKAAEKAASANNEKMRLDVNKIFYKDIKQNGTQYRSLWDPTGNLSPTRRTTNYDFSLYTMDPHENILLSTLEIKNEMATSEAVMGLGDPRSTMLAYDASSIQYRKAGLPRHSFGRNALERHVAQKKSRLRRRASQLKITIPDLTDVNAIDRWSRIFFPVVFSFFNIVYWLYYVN
Chain of GABAA receptor subtype (α1β2γ2S) (P18507 40-467 isoform P18507-1 limits assumed): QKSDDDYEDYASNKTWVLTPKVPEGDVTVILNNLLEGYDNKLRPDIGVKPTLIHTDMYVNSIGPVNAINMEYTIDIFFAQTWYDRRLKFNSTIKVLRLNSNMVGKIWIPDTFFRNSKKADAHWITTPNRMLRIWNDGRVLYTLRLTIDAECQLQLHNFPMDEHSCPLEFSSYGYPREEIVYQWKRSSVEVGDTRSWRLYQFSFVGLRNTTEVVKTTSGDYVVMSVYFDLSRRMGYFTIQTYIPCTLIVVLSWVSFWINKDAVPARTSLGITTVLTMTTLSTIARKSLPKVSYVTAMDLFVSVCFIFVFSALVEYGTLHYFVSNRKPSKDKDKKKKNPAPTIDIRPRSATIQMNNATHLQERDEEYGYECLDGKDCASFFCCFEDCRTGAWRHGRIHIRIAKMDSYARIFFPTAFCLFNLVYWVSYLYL
Protocol: All molecules were tested at concentrations of 10, 100 μM and compared with dehydroabietic acid (DHA) (3) as a reference [16].

WiDr (Colon) = test: Antiproliferative SRB assay; assay type: cell-based, human; conditions: Homo sapiens, WiDr, mean ± SD of at least two experiments
Protocol: (§2) Cells, cultures and the activity test of abietane analogs followed reported methods. The SRB assay was performed as previously described, and the antiproliferative activity was given as GI50 values, which were calculated according to NCI formulas.

SW1573 (Lung) = test: Antiproliferative SRB assay; assay type: cell-based, human; conditions: Homo sapiens, SW1573, mean ± SD of at least two experiments
Protocol: as §2

A549 (Lung) = test: Antiproliferative SRB assay; assay type: cell-based, human; conditions: Homo sapiens, A549, mean ± SD of at least two experiments
Protocol: as §2

[4] = tested on: L. donovani promastigotes; test: Antileishmanial in vitro promastigote assay; conditions: Leishmania donovani, read-out: L. donovani IC50 ± SD
Protocol: as §3, §4

HeLa (Cervix) = test: Antiproliferative SRB assay; assay type: cell-based; conditions: Homo sapiens, mean ± SD of at least two experiments
Protocol: as §2

HBL-100 (Breast) = test: Antiproliferative SRB assay; assay type: cell-based; conditions: Homo sapiens, mean ± SD of at least two experiments
Protocol: as §2

T-47D (Breast) = test: Antiproliferative SRB assay; assay type: cell-based; conditions: Homo sapiens, T47D, mean ± SD of at least two experiments
Protocol: as §2

HepG2 = test: Cytotoxicity on mammalian cell lines; assay type: cell-based; conditions: Homo sapiens, HepG2; read-out: HepG2 EC50
Protocol: as §1

BJ = test: Cytotoxicity on mammalian cell lines; assay type: cell-based; conditions: Homo sapiens, read-out: BJ EC50
Protocol: as §1

RAJI = test: Cytotoxicity on mammalian cell lines; assay type: cell-based; conditions: Homo sapiens, read-out: RAJI EC50
Protocol: as §1

HEK293 = test: Cytotoxicity on mammalian cell lines; assay type: cell-based; conditions: Homo sapiens, HEK293; read-out: HEK293 EC50
Protocol: as §1

[5] = tested on: L. amazonensis amastigotes; test: Intracellular amastigote assay (fluorometric test); assay type: cell-based; conditions: Leishmania amazonensis, read-out: L. amazonensis IC50 ± SD
[6] = tested on: L. guyanensis promastigotes; test: Antileishmanial in vitro promastigote assay; conditions: Leishmania guyanensis, read-out: L. guyanensis IC50 ± SD
Protocol: as §3, §4

in vitro = conditions: mouse, Macrophages J774 CC50
Protocol: as §3, §4

[7] = Cytotoxicity assay on J774 macrophages; conditions: mouse, Macrophages J774 CC50, 50% reduction of cell viability
Protocol: as §3, §4

Macrophages J774 = conditions: mouse
Protocol: as §3, §4

[8] = tested on: Leishmania promastigotes (L. donovani, L. infantum, L. guyanensis, L. amazonensis); test: Antipromastigote activity over the tested Leishmania spp.; conditions: read-out: antipromastigote activity IC50 values (range over species)
Protocol: The parasites, culture procedure and the activity of functionalized abietane analogs on Leishmania promastigotes were performed according to the method previously reported by us [28], while the intracellular amastigote assay was performed on L. amazonensis and L. infantum according to the fluorometric test [29].

Row | Compound | EC50 (P. falciparum K1 strain) [µM] | EC50 (P. falciparum 3D7 strain) [µM] | IC50 (L. infantum amastigotes) [µM] | IC50 [1] [µM] | IC50 [2] [µM] | activation at 10 µM [3] [%] | activation at 100 µM [3] [%] | GI50 (WiDr (Colon)) [µM] | GI50 (SW1573 (Lung)) [µM] | GI50 (A549 (Lung)) [µM] | IC50 [4] [µM] | GI50 (HeLa (Cervix)) [µM] | GI50 (HBL-100 (Breast)) [µM] | GI50 (T-47D (Breast)) [µM] | EC50 (HepG2) [µM] | EC50 (BJ) [µM] | EC50 (RAJI) [µM] | EC50 (HEK293) [µM] | IC50 [5] [µM] | IC50 [6] [µM] | other results
1 | CC(C)c1cc2c(cc1O)C1(C)CCCC(C)(C(=O)O)C1CC2=O (single isomer, unassigned; (+)) [Compound 8a, (+)-4-epi-liquiditerpenoic acid A] | > 15 | > 15 | 20.1 ± 2 | 94.5 ± 6.5 | 100 ± 20 | -8 ± 1 | -8 ± 3 | 33 ± 15 | 41 ± 17 | 12 ± 2.9 | 84.4 ± 31.6 | 12 ± 3.8 | 39 ± 14 | 31 ± 12 | > 25 | > 25 | > 25 | > 25 | 21.4 ± 2.3 | 3 ± 0.9 | CC50 (in vitro): > 200 µM
2 | COC(=O)[C@@]1(C)CCC[C@]2(C)c3cc(C(C)=O)c(C(C)C)cc3CC[C@@H]12 [Compound 9] | 12.6 | 12.8 | 22.7 ± 5.9 | 14.1 ± 1.4 | 20.3 ± 4.6 | – | – | 15 ± 2.1 | 25 ± 11 | 15 ± 7 | 8.9 ± 2 | 15 ± 4.1 | 14 ± 2.1 | 14 ± 1 | > 25 | > 25 | > 25 | > 25 | 30.3 ± 1.2 | 18.7 ± 0.8 | CC50 [7]: > 200 µM
3 | COC(=O)[C@@]1(C)CCC[C@]2(C)c3cc(OC(C)=O)c(C(C)C)cc3CC[C@@H]12 [Compound 10] | 3.1 | > 15 | – | 7.4 ± 0.6 | 3.6 ± 0.6 | – | – | 4.5 ± 1.4 | 18 ± 3.4 | 6.5 ± 2.7 | 3.9 ± 0.1 | 7 ± 1.7 | 11 ± 2.3 | 4.2 ± 1.5 | > 25 | > 25 | > 25 | > 25 | – | – | CC50 [7]: 30.2 ± 2 µM
4 | COC(=O)[C@@]1(C)CCC[C@]2(C)c3cc(OC(C)=O)c(C(C)C)cc3C(=O)C[C@@H]12 [Compound 11] | 5.7 | 7.1 | – | – | – | 1 ± 3 | 75 ± 4 | 5.2 ± 3.1 | 17 ± 7.5 | 3.1 ± 0.9 | – | 5.6 ± 2.9 | 7.4 ± 0.7 | 6.1 ± 1.9 | > 25 | > 25 | > 25 | > 25 | – | – | CC50 [7]: 45.8 ± 5.6 µM
5 | COC(=O)[C@@]1(C)CCC[C@]2(C)c3cc(O)c(C(C)C)cc3CC[C@@H]12 [Compound 12] | 2.1 | 4.7 | – | – | – | 1 ± 3 | 65 ± 6 | 3.7 ± 1.9 | 12 ± 4.1 | 2.3 ± 1.5 | – | 5.1 ± 1.9 | 11 ± 3 | 4.2 ± 1.3 | > 25 | > 25 | > 25 | > 25 | – | – | CC50 [7]: 65.4 ± 7 µM
6 | CC(C)c1cc2c(cc1O)[C@@]1(C)CCC[C@](C)(C(=O)O)[C@@H]1CC2 [Compound 13, lambertic acid] | > 15 | > 15 | 19.2 ± 3.8 | 51.5 ± 3.2 | 29.1 ± 1.5 | 3 ± 3 | 71 ± 23 | 59 ± 7.3 | 32 ± 8.9 | 17 ± 6.1 | 12.8 ± 2.8 | 29 ± 13 | 34 ± 4.2 | 41 ± 8.4 | > 25 | > 25 | > 25 | > 25 | 8.8 ± 1.6 | 17.8 ± 1.2 | CC50 (Macrophages J774): 217 ± 34 µM; fold less cytotoxic than 12-hydroxydehydroabietic acid (Macrophages J774): 2.5 fold; CC50 (in vitro): > 200 µM; IC50 [8]: 12.8 to 51.5 µM
7 | CC(C)c1cc2c(cc1O)[C@@]1(C)CCC[C@](C)(CO)[C@@H]1CC2=O [Compound 15, 19-hydroxysugiol] | 9.4 | > 15 | – | – | – | 30 ± 14 | 238 | 17 ± 5 | 19 ± 3.3 | 10 ± 0.3 | – | 15 ± 1.1 | 17 ± 1.7 | 19 ± 1.1 | > 25 | > 25 | > 25 | > 25 | – | – | IGABA Potentiation of 100 µM (%) ([3]; 100 µM, α1β2γ2S receptors): 238 ± 28%; CC50 (in vitro): 50.1 ± 2.4 µM
8 | COC(=O)[C@@]1(C)CCC[C@]2(C)c3cc(O)c(C(C)C)cc3C(=O)C[C@@H]12 [Compound 16] | 3.9 | 4.8 | 16.5 ± 4.6 | 8.5 ± 0.3 | 10.1 ± 1.4 | 5 ± 4 | 104 ± 26 | 6.1 ± 4.2 | > 100 | 11 ± 6.9 | 11.8 ± 0.8 | 18 ± 1.7 | 65 ± 4.9 | 47 ± 25 | > 25 | > 25 | > 25 | > 25 | 16.1 ± 2 | 5.6 ± 0.6 | CC50 (in vitro): > 200 µM
9 | CCCCCCCCCCCCCCCCOP(=O)([O-])OCC[N+](C)(C)C [Miltefosine, reference compound] | – | – | 58.1 ± 4.4 | 47.7 ± 5 | 3.4 ± 0.6 | – | – | – | – | – | 0.15 ± 0.02 | – | – | – | – | – | – | – | 16.5 ± 1.9 | 18.2 ± 0.6 | CC50 (in vitro): 136 ± 1.4 µM
